{"source": "patent US6495525B1", "about": "“VLA-4 inhibitor: oMePUPA-V” (Biogen, Inc., priority 1998, dated 2002)", "key": {"[1]": {"system": "Ascaris suum-sensitive sheep", "experiment": "Ovine model of allergic pulmonary inflammation (Ascaris suum allergen challenge)", "type": "in vivo", "settings": "for EAR (ΔSLR × h): 0-4 h; for LAR (ΔSLR × h): 4-8 h; for PC400 (Post/Pre): carbachol 24 h post-challenge; for early and late airway response, hyperresponsiveness to carbachol (in words): aerosol 2 h before challenge", "source_text": "Allergic sheep weighing between 27-50 kg were used. […] The sheep were conscious and were restrained in a modified shopping cart in the prone position with their heads immobilized. After topical anesthesia of the nasal passages with 2% lidocaine, a balloon catheter was advanced through one nostril into the lower esophagus. The animals were intubated with a cuffed endotracheal tube through the other nostril using a flexible fiberoptic bronchoscope as a guide. All protocols used in this study were approved by the Mount Sinai Medical Center Animal Research Committee, which is responsible for assuring the humane care and use of experimental animals. Pleural pressure was estimated using an esophageal balloon catheter (filled with 1 mL of air), which was positioned 5 to 10 cm from the gastroesophageal-junction. In this position, the end expiratory pleural pressure ranged between −2 to −5-cmH2O. Once the balloon was placed, it was secured so that it remained in the same position for the duration of the experiment. Lateral pressure in the trachea was measured with a sidehole catheter (inner diameter, 2.5 mm) advanced through and positioned distal to the tip of the endotracheal tube.\nThe tracheal and pleural pressure catheters were connected to a differential pressure transducer (MP45, Validyne, Northridge, Calif.) for the measurement of transpulmonary pressure which was defined as the difference between tracheal and pleural pressure. Airflow was measured by connecting the proximal end of the endotracheal tube to a pneumotachograph (Fleisch, Dyna Sciences, Inc., Blue Bell, Pa.). The signals of transpulmonary pressure and flow were recorded on a multichannel physiological recorder which was linked to a 80-386 DOS Personal Computer for on-line calculation of mean pulmonary flow resistance (RL) by dividing the change in transpulmonary pressure by the change in flow at mid-tidal volume (obtained by digital integration). The mean of at least five breaths, free of swallowing artifact, was used to obtain RL in cmH2O/L/sec. Immediately after the measurement of RL, thoracic gas volume (Vtg) was measured in a constant-volume body plethysmograph to obtain specific lung resistance (SRL=RL×Vtg) in L×cmH2O/L/sec.\nAll liquid-dose aerosols were generated using a disposable medical air-jet nebulizer (Raindrop®, Puritan Bennett, Lenexa, Kans.) that provided an aerosol with a mass median aerodynamic diameter of 3.2 μm as determined by an Andersen cascade impactor. The nebulizer was connected to a dosimeter system, consisting of a solenoid valve and a source of compressed air (20 psi). The output of the nebulizer was directed into a plastic T-piece, one end of which was connected to the inspiratory port of a piston respirator (Harvard Apparatus, S. Natick, Mass.). The solenoid valve was activated for one second at the beginning of the inspiratory cycle of the respirator. Aerosols were delivered at a tidal volume of 500 mL and a rate of 20 breaths per minute. To assess bronchial responsiveness, cumulative concentration response curves to carbachol were performed by measuring SRL immediately after inhalation of buffer and after each consecutive administration of 10 breaths of increasing concentrations of carbachol (0.25, 0.5, 1.0, 2.0 and 4.0% w/v in buffered saline). The provocation test was discontinued when SRL increased over 400% from the post-saline value or after the highest carbachol concentration had been administered. Bronchial responsiveness was assessed by determining the cumulative carbachol concentration (in breath units) that increased SRL by 400% over the post-saline value (PC400) by interpolation from the dose response curve. One breath unit (BU) was defined as one breath of a 1% w/v carbachol nebulized solution.\nDoses of oMePUPA-V were dissolved in either ethanol:normal saline 1:2, ethanol:200 mM sodium phosphate 1:5 or Tris buffer. When using Tris, any required dilution was performed using normal saline. […]"}, "[2]": {"experiment": "Bulk / drug substance stability (HPLC)", "type": "physicochemical", "method": "At four weeks, one or two degradation peaks became detectable at 40° C. and 50° C., but the level of each impurity peak was still less than 0.02%."}, "[3]": {"experiment": "Proteolytic stability, in vitro metabolism and in vivo PK studies", "type": "in vitro ADME", "settings": "in vitro metabolism studies and in vivo PK studies in rat, dog and sheep"}, "Solubility": {"experiment": "Solubility", "type": "physicochemical"}, "VLA-4": {"biological_target": "VLA-4 (Homo sapiens, UniProt P05556+P13612)", "sequence (P13612 34-1032)": "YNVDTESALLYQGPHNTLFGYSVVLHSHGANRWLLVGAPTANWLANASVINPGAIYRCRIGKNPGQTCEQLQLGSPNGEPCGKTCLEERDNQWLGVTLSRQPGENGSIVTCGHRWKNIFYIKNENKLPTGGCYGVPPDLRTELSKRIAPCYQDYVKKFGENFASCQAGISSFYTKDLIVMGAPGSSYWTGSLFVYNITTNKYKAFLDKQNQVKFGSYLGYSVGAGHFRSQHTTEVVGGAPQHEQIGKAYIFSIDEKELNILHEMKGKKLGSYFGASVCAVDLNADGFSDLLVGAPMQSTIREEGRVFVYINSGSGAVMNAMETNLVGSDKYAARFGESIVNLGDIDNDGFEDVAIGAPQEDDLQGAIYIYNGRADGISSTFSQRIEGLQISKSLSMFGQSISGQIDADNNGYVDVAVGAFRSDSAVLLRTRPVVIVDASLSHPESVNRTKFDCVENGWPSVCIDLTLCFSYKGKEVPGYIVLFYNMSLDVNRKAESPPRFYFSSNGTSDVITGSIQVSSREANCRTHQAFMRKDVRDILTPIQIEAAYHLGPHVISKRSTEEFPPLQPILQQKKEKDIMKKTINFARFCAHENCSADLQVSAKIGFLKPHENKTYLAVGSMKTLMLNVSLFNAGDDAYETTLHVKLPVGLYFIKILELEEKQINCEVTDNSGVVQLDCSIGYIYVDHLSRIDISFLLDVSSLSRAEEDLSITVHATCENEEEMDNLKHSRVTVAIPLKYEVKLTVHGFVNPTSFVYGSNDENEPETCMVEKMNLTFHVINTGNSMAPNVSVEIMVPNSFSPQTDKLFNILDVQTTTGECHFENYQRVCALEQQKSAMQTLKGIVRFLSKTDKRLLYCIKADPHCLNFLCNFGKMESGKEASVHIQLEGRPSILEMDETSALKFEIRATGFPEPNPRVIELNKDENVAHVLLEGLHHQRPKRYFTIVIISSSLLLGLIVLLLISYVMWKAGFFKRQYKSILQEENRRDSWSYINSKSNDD", "sequence (P05556 21-798)": "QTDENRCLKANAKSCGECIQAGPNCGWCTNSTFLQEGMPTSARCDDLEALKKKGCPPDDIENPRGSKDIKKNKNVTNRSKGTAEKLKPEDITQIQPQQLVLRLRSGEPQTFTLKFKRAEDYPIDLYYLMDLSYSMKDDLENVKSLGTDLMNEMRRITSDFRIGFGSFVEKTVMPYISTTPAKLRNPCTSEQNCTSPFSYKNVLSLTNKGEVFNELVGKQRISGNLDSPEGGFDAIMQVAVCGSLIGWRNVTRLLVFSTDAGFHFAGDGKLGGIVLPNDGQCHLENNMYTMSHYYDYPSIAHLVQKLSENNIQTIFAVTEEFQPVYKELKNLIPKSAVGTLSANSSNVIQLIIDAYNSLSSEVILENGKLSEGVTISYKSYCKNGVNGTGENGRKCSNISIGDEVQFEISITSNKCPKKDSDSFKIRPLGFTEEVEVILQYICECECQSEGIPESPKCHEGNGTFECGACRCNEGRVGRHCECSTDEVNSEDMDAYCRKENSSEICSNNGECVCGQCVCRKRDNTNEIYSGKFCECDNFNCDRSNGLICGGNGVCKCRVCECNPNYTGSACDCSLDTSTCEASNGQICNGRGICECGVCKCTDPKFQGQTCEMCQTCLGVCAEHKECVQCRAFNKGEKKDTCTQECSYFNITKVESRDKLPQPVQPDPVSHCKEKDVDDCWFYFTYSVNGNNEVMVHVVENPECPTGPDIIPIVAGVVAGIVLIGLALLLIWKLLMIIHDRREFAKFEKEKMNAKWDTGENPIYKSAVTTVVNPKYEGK", "experiment": "CS1 Cell Adhesion Assay, Jurkat cells to CS1/BSA conjugate", "type": "cell-based", "design": "endogenous in cells; host or cells: Jurkat (human T cell line)", "method": "The peptide NH2-cysteine-tyrosine-CS-1 was synthesized and coupled to BSA-SMCC (SMCC is a heterobifunctional crosslinker which reacts with free amino groups on BSA and the sole cysteine of the synthetic peptide) at a CS1/BSA ratio of 10:1. Wells were coated overnight with 100 μL of conjugate diluted to a final concentration of 1 ug/ml. The next day the wells were blocked with BSA in PBS for one hour and then washed three times.\nThe human T cell line, Jurkat, was labeled with 2 μM BCECF-AM, a fluorescent dye (2′, 7′, bis-(2-carboxyethyl)-5 and -6) carboxy fluorescein acetoxymethyl ester (Molecular Probes Inc., Eugene, Oregon; catalog #B-1150) that is internalized and deesterified thus trapping the dye within live cells. Jurkat cells (1×10^5 cells/well) in buffer containing 1 mM Mn^+2 were added to the coated plates in the presence of three-fold serial dilutions of inhibitor. Each concentration was assayed in duplicate. After 30 minutes at room temperature, the plates were inverted and washed three times or until no cells were adherent to control wells coated with BSA alone. CS1-adherent cells were quantitated in a Cytofluor fluorescent platereader using an excitation wavelength of 485 nm and an emission wavelength of 530 nm.\nCells adhered to CS1/BSA in the absence of compound served as the 0% inhibition control whereas cells adhering to BSA alone served as the 100% inhibition control. IC50's were calculated using Deltagraph software, version 5."}, "[4]": {"settings": "0.01 mg aerosol, EtOH:NS, 2 hours prior to allergen challenge"}, "[5]": {"settings": "0.03 mg aerosol, EtOH:NS, 2 hours prior to allergen challenge"}, "[6]": {"settings": "0.03 mg once daily for 4 days, EtOH:NS, challenge 24 h after last dose"}, "[7]": {"settings": "0.03 mg once daily for 4 days, Tris:NS, challenge 24 h after last dose"}, "[8]": {"settings": "0.10 mg aerosol, EtOH:NS, 2 hours prior to allergen challenge"}, "[9]": {"settings": "1.00 mg aerosol, EtOH:PBS, 2 hours prior to allergen challenge"}, "[10]": {"settings": "3.00 mg aerosol, EtOH:PBS, 2 hours prior to allergen challenge"}}, "data": [{"smiles": "Cc1ccccc1NC(=O)Nc1ccc(CC(=O)N2CCC[C@H]2C(=O)N[C@H](C)CC(=O)O)cc1", "note": "[oMePUPA-V]", "values": [{"measurement": "EAR (ΔSLR × h)", "setting": "[1]; [4]", "result": "6.87 ± 0.05 ΔSLR × h"}, {"measurement": "LAR (ΔSLR × h)", "setting": "[1]; [4]", "result": "5.11 ± 1.46 ΔSLR × h"}, {"measurement": "PC400 (Post/Pre)", "setting": "[1]; [4]", "result": "0.44 ± 0.04"}, {"measurement": "EAR (ΔSLR × h)", "setting": "[1]; [5]", "result": "10.62 ± 3.91 ΔSLR × h"}, {"measurement": "LAR (ΔSLR × h)", "setting": "[1]; [5]", "result": "3.98 ± 0.23 ΔSLR × h"}, {"measurement": "PC400 (Post/Pre)", "setting": "[1]; [5]", "result": "0.43 ± 0.00"}, {"measurement": "EAR (ΔSLR × h)", "setting": "[1]; [6]", "result": "1.53 ± 0.34 ΔSLR × h"}, {"measurement": "LAR (ΔSLR × h)", "setting": "[1]; [6]", "result": "0.59 ± 0.16 ΔSLR × h"}, {"measurement": "PC400 (Post/Pre)", "setting": "[1]; [6]", "result": "1.06 ± 0.04"}, {"measurement": "EAR (ΔSLR × h)", "setting": "[1]; [7]", "result": "1.40 ± 0.35 ΔSLR × h"}, {"measurement": "LAR (ΔSLR × h)", "setting": "[1]; [7]", "result": "0.02 ± 0.06 ΔSLR × h"}, {"measurement": "PC400 (Post/Pre)", "setting": "[1]; [7]", "result": "1.04 ± 0.04"}, {"measurement": "protection against EAR, LAR and hyperresponsiveness (in words)", "setting": "[1]; 0.03 mg once daily for 4 days, antigen challenge 24 h after the last dose", "result": "protective"}, {"measurement": "EAR (ΔSLR × h)", "setting": "[1]; [8]", "result": "2.54 ± 0.74 ΔSLR × h"}, {"measurement": "LAR (ΔSLR × h)", "setting": "[1]; [8]", "result": "0.67 ± 0.17 ΔSLR × h"}, {"measurement": "PC400 (Post/Pre)", "setting": "[1]; [8]", "result": "1.18 ± 0.11"}, {"measurement": "EAR (ΔSLR × h)", "setting": "[1]; [9]", "result": "2.14 ± 0.70 ΔSLR × h"}, {"measurement": "LAR (ΔSLR × h)", "setting": "[1]; [9]", "result": "0.27 ± 0.34 ΔSLR × h"}, {"measurement": "PC400 (Post/Pre)", "setting": "[1]; [9]", "result": "1.05 ± 0.11"}, {"measurement": "EAR (ΔSLR × h)", "setting": "[1]; [10]", "result": "2.47 ± 0.62 ΔSLR × h"}, {"measurement": "LAR (ΔSLR × h)", "setting": "[1]; [10]", "result": "0.68 ± 0.07 ΔSLR × h"}, {"measurement": "PC400 (Post/Pre)", "setting": "[1]; [10]", "result": "1.07 ± 0.08"}, {"measurement": "Minimum effective dose in sheep model, repeat-dose", "setting": "[1]; daily for 4 days, antigen challenge 24 hours after the last dose", "result": 1, "unit": "µg/kg"}, {"measurement": "early and late airway response, hyperresponsiveness to carbachol (in words)", "setting": "[1]; doses of 0.01 and 0.03 mg", "result": "did not inhibit early or late airway response"}, {"measurement": "early and late airway response, hyperresponsiveness to carbachol (in words)", "setting": "[1]; doses of 0.1, 1 and 3 mg", "result": "inhibited the early airway response and maximally inhibited the late airway response"}, {"measurement": "Minimum effective dose in sheep model, single dose", "setting": "[1]; single nebulized dose 2 hours before antigen challenge", "result": 3, "unit": "µg/kg"}, {"measurement": "Bulk stability (40° C., 75% RH), time stable", "setting": "[2]", "result": "stable >4 wk"}, {"measurement": "proteolytic stability", "setting": "[3]", "result": "proteolytically stable"}, {"measurement": "solubility in DMSO", "setting": "Solubility; DMSO", "result": "soluble"}, {"measurement": "solubility", "setting": "Solubility; aqueous medium", "result": 120, "unit": "µg/mL"}, {"measurement": "IC50", "setting": "VLA-4; 1 mM MnCl2, read-out: IC50 ± SD, Jurkat cell CS1 adhesion", "result": 22, "unit": "nM"}, {"measurement": "blocking of Jurkat cell adhesion to CS1 (in words)", "setting": "VLA-4; in the presence of Mn+2", "result": "completely block"}]}]}
